The source of these data is patent US20100273203A1 (priority 2009, published 2010).

Each structure is given as a SMILES string. Where two headings read alike, the source gives them in different places.

Data set [1] deals with T1, CYP2C9*1 (Homo sapiens, UniProt P11712). As to conditions: read-out: IC50 for CYP marker reaction; P450-Glo marker reaction.
Data set [2] addresses CYP2C9 present in the human liver microsomes (Homo sapiens, UniProt P11712). As to conditions: for Ki / Mechanism of inhibition: S-warfarin metabolism, 7-hydroxywarfarin formation as marker. How it is done:
(§1) For each hydroxywarfarin, at least 4 independent experimental replicates were performed.
(§2) MS/MS experimental conditions was used as described previously (6).
(§3) The most probable inhibition mechanism for recombinant CYP2C9 and human liver microsome reactions was identified using DynaFit ver. 3.28 (Biokin, Ltd) (20). Data from each set of hydroxywarfarin experiments were fit to traditional reversible inhibition mechanisms (competitive, uncompetitive, noncompetitive, or mixed). The respective kinetic parameters (Ki and Ki′) were set as variables, while the kinetic parameters (Vmax and Km) were constants based on values obtained from uninhibited reactions. The most probable mechanism was then identified using the Akaike Information Criterion (AICc) for model discrimination (21).

For data set [3], the target named is T1, CYP2C9*1. The settings on record: for Ki / Mechanism of inhibition: S-warfarin metabolism, 7-hydroxywarfarin formation as marker. How it is done: as §1, §2, §3
The target in data set [4] is CYP2C9 (Homo sapiens, UniProt P11712). The settings on record: read-out: IC50 toward recombinant CYP2C9 activity; P450-Glo, 50 μM Luciferin H; racemic compounds. How it is done:
Hydroxywarfarins were screened for inhibitory potential toward recombinant CYP2C9 using the Promega (Madison, Wis.) CY2C9 P450-Glo™ Assay using the manufacturer's protocol. These IC50 studies were analyzed on a PerkinElmer Victor^3V™ 1420 Multilabel Counter. Recombinant CYP2C9, 50 nM, was incubated with 50 μM Luciferin H, and six concentrations of each hydroxywarfarin from approximately 10 nM to 4 mM final concentration, as optimized for each compound. The appropriate volume of hydroxywarfarin stocks in 100% ethanol were added to each well prior to addition of the substrate and enzyme, and the ethanol was allowed to evaporate at room temperature to minimize solvent effects on CYP2C9 activity. A final DMSO concentration of 1% was present in the reactions due to the P450-Glo Luciferin H. The reaction was initiated upon addition of an NADPH regenerating solution (BD Biosciences) and quenched with a luciferase quench (Promega) at 30 min.

The target of data set [5] is T2, CYP3A4 (Homo sapiens, UniProt P08684). The settings on record: read-out: IC50 for CYP marker reaction; P450-Glo marker reaction.
T2 sequence (P08684 whole entry): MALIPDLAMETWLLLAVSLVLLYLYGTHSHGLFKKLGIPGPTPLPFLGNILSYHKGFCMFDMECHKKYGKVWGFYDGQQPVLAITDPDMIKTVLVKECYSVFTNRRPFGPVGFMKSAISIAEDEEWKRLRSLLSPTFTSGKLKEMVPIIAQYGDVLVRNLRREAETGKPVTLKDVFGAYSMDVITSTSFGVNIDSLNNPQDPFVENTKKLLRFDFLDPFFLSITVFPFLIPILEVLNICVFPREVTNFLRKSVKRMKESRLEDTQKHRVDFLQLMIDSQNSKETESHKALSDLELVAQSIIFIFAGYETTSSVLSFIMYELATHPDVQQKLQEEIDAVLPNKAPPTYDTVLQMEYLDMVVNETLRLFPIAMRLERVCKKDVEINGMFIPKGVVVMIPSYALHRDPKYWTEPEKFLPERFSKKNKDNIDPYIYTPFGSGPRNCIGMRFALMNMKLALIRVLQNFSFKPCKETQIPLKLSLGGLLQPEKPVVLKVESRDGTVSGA
Data set [6] is described as follows: LC-MS/MS urinary metabolic profile of patients receiving warfarin. The settings on record: for % R / % S (proportion in (S)-enantiomeric form) / % conjugated (proportion glucuronidated) / urinary concentration: urine; for urinary concentration: free and conjugated; for share of (S)-WAR P450 metabolites measured: three urine specimens. The text has this: All chemicals used in this study were of at least reagent grade. Unless otherwise specified, all chemicals and reagents were purchased from either Sigma-Aldrich (St. Louis, Mo.) or Thermo Fisher Scientific (Waltham, Mass.). […] Ethyl alcohol (100%) was purchased from AAPER (Shelbyville, Ky.). Re-combinant CYP2C9*1, CYP3A4, CYP1A2, and CYP2C19 were expressed in baculovirus-infected insect cells and purchased from BD Biosciences (San Jose, Calif.). Commercially available urine specimens from three females (F84, F85, and F87) were provided by the Emergency Response and Air Toxicants Branch, Division of Laboratory Science National Center for Environmental Health Centers for Disease Control and Prevention (DeKalb County, Ga.). Patient studies were conducted under IRB-approved protocols, and all patients signed informed consent documentation.
This analytical phase was accomplished by reverse-phase HPLC using a 4.6 mm×150 mm C18 Zorbax Eclipse 5 μm XDB-C18 column provided by Agilent (Santa Clara, Calif.). The operating temperature was 40° C., and the sample injection volume was 5.0 μL. HPLC mobile phases consisted H2O (0.1% acetic acid v/v) (A) and methanol (0.1% acetic acid v/v) (B). The flow rate was 1 mL/min. […] The total run time per sample was 10 min. Specific MS/MS experimental conditions used in this study are noted in Table 1.
To determine the relative abundance of the (R)-and (S)-enantiomers of each metabolite, a 4.6 mm×25 cm Chirobiotic V5 μm column supplied by Supelco (Bellefonte, Pa.) was incorporated during the second analytical phase. Mobile phases consisted of H2O (0.1% acetic acid v/v) (A) and acetonitrile (0.1% acetic acid v/v) (B) with a flow rate of 800 μL/min. Enantiomeric separations were accomplished under isocratic conditions (80% A and 20% B). The sample injection volume was 15.0 μL. Enantiomeric MS/MS analyses were performed in negative ion mode by electrospray ionization (ESI) using a Turbo IonSpray source. A total run time of 20 min was required for adequate resolution. Specific MS/MS experimental conditions used in this study are noted in the Table 2.
Each response was normalized to that of the internal standard, 7-hydroxycoumarin (10 μM). […] Measurements of these three metabolites were calculated by taking the difference of the amount measured in the first analytical phase, which contained both (R)-and (S) isomers from the amount of the (S)-isomer measured in the second analytical phase (eq 3). Glucuronidated metabolites were measured by incubating 250 μL of urine with 2000 units of GUS in 100 mM sodium acetate buffer, pH 5.0. The final volume for each of these reactions was 1 mL. Control reactions omitting GUS were included with each sample set. Reactions were incubated overnight at 37° C., after which they were stored at −80° C. Immediately before analysis, both samples were diluted with an equal volume of ethanol containing 7-hydroxycoumarin (10 μM final concentration). The difference between GUS-treated samples and controls represented the amount of glucuronidated metabolites present.

Data set [7] addresses T3, CYP1A2 (Homo sapiens, UniProt P05177).
T3 sequence (P05177 1-516): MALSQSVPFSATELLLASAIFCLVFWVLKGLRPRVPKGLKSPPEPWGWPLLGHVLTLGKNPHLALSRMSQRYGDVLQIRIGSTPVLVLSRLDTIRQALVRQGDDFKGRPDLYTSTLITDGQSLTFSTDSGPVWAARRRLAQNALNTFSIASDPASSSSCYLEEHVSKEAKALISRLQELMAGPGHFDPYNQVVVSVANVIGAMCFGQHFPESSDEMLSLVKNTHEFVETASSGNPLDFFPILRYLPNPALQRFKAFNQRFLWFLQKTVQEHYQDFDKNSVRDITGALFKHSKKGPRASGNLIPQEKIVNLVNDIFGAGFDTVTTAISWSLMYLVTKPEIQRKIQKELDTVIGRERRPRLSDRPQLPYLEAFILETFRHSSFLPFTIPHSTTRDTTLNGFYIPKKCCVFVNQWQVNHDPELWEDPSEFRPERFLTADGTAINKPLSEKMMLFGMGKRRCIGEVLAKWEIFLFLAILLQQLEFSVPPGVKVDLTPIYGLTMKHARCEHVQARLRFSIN
The settings on record: read-out: IC50 for CYP marker reaction; P450-Glo marker reaction.

Data set [8] deals with plasma proteins. As to conditions: cited from earlier work.
The target in data set [9] is UGT1A10 (Homo sapiens, UniProt Q9HAW8). As to conditions: glucuronidation; racemic OHWars. The text has this:
The characterization of hepatic and extrahepatic glucuronidation may be made based on glucuronidation studies with 100 commercially available HLM and 100 intestinal microsomal preparations available in our laboratory. […] Both racemic mixtures and separated R and S enantiomers may be assayed. […] Activities of extrahepatic (UGT1A8 and UGT1A10) and hepatic (UGT1A1, UGT1A3, and UGT1A9) isoforms may be compared to that of their respective microsomal preparations, and assign the contribution of specific UGTs to product formation by the human samples.

A short description of data set [10]: Estimated unbound levels in plasma of long-term warfarin therapy patients. As to conditions: estimated from literature data.
In data set [11] the target is T2, CYP3A4. The data set is described as follows: Steady-state metabolism of R- and S-warfarin by recombinant CYP3A4.
Method: (§4) Reactions were initiated upon addition of an NADPH regenerating system [2 μU μL-1 glucose 6-phosphate dehydrogenase, 10 mM glucose 6-phosphate, 2 mM MgCl2, 1 mM NADP^+]. […] The quenched reactions were centrifuged and the resulting supernatant containing substrate and products resolved and quantified by UPLC-MS/MS. Each experiment was performed in at least 4 independent experimental replicates.
(§5) The flow rate was constant at 250 μL/min. […] Electrospray conditions were as follows: spray voltage of 4500 V, sheath gas pressure 45, auxiliary gas pressure 20, and collision energy of 15-15 eV (compound specific).
(§6) Final metabolite concentrations were calculated from the ratio of metabolite area to internal standard area in the sample and compared to calibration curves as determined from the UPLC-MS/MS method. All compounds were quantified relative to authentic standards. The resulting kinetic data were analyzed with GraphPad Prism 5® software. Non-linear regression analysis was used to fit steady-state data to the Michaelis-Menten equation to determine the Vmax and Km parameters.
Data set [12] concerns the target CYP3A7 (Homo sapiens, UniProt P24462). The data set can be described thus: Steady-state metabolism of R- and S-warfarin by recombinant CYP3A7.
Method: as §4, §5, §6
The mark [13] stands for this setting: 10-hydroxywarfarin formation, 37° C, pH 7.4.

Chain of CYP2C9 present in the human liver microsomes (P11712 whole entry): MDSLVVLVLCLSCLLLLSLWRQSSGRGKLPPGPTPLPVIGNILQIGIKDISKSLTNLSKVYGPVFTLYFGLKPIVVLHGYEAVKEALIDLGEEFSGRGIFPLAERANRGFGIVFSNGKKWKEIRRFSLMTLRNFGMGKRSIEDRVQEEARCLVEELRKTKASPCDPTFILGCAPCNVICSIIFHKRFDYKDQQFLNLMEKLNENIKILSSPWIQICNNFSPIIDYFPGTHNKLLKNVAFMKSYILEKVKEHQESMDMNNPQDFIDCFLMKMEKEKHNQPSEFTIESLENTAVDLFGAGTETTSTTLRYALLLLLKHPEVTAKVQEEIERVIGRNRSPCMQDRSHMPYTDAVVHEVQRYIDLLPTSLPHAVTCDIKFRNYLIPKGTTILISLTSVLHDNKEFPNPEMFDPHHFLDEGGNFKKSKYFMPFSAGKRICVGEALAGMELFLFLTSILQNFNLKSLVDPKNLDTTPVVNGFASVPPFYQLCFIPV
Chain of CYP2C9 (P11712 whole entry): as above
Chain of CYP3A7 (P24462 whole entry): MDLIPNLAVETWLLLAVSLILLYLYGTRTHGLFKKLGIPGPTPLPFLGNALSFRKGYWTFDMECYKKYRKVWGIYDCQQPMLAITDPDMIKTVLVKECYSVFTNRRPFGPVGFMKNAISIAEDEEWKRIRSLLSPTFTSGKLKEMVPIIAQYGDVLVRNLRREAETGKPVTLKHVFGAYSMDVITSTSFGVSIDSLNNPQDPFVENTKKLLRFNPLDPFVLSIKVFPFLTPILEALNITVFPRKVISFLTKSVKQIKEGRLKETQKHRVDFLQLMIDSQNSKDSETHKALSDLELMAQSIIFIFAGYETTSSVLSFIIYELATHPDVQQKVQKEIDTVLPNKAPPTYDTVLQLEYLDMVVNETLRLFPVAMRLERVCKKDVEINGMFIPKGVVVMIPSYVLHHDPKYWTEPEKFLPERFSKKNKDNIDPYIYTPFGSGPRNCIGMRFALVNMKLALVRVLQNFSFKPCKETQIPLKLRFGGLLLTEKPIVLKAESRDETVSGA
Chain of UGT1A10 (Q9HAW8 26-530): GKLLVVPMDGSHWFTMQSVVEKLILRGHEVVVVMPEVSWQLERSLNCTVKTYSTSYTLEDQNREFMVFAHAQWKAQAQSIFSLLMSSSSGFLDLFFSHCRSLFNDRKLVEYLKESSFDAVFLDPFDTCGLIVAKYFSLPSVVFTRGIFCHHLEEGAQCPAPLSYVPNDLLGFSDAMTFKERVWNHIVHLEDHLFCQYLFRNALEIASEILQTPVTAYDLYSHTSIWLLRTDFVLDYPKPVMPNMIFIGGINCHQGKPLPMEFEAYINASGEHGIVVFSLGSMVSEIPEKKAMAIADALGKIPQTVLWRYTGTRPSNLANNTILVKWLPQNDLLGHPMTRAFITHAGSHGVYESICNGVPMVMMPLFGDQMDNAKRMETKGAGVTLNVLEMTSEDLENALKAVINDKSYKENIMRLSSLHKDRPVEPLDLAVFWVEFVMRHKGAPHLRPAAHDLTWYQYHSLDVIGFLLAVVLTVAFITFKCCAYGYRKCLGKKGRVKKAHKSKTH

By IC50 is commonly meant the midpoint of a concentration-inhibition curve. One may read the Ki as the equilibrium dissociation constant of an inhibitor or competing ligand from its target. Read a low Ki as a stronger hold on the target. In the case of `CC(=O)CC(c1ccc(O)cc1)c1c(O)c2ccccc2oc1=O` (stereo not drawn) [4′-OH-WAR, 4′-hydroxywarfarin], the IC50 in data set [1] is 8.4 µM; in data set [4] it was 9.3 µM; in [5] it was 39 µM; in data set [7], more than 3000 µM. The inhibition constant Ki in data set [2] is 17 µM; in data set [3], 17 µM; in [3] (mixed inhibition), 133 µM. Besides, the Mechanism of inhibition result in data set [2] is recorded as “Competitive”; in [3], “Mixed”. For the same compound, the “% R” value in [6] (patient F84) is recorded as 64%; in data set [6] (patient F85), 25%; in data set [6] (patient F87) it was 30%. Also, the results for the “% S (proportion in (S)-enantiomeric form)” value in data set [6] (patient F84), in data set [6] (patient F85) and in data set [6] (patient F87) were 56%, 75% and 70%, respectively. Moreover, the “% conjugated (proportion glucuronidated)” value in [6] (patient F84) was found to be 47%. The urinary concentration in data set [6] (patient F84) is on record as 140 nM; in [6] (patient F85), 94 nM; in data set [6] (patient F87), 20 nM. Besides, in data set [8], the “plasma protein binding affinity relative to warfarin” value is “affinity comparable to warfarin”.
What is called Km is the concentration of substrate that gives half-maximal velocity. Turning to `CC(=O)CC(c1ccccc1)c1c(O)c2cc(O)ccc2oc1=O` (stereo not drawn) [6-OH-WAR, 6-hydroxywarfarin], the half-maximal inhibitory concentration (IC50) was 44.3 µM in [1], 47 µM in data set [4], more than 500 µM in data set [5] and 1400 µM in data set [7]. Besides, the Ki is 167 µM in data set [2] and more than 170 µM in [3]. Further, the Mechanism of inhibition result was “Competitive” in data set [2], “no inhibition was observed” in data set [3] (listed as 6-hydroxywarfarin) and “None” in [3] (listed as 6OHWAR). Besides, the “Ki, fold higher than the marker Km” value in data set [2] (human liver microsomes) is given as “approximately 32 fold”. In addition, the “% R” value in data set [6] (patient F84) is listed as 65%; in data set [6] (patient F85), 69%; in data set [6] (patient F87) it was 62%. For the same compound, the “% S (proportion in (S)-enantiomeric form)” value in [6] (patient F84) came out at 35%; in data set [6] (patient F85) it was 31%; in data set [6] (patient F87), 38%. Further, the “% conjugated (proportion glucuronidated)” value in [6] (patient F84) was 35%; in data set [6] (patient F85), 15%; in data set [6] (patient F87) it was 12%. The urinary concentration in data set [6] (patient F84) is 560 nM; in data set [6] (patient F85), 1124 nM; in data set [6] (patient F87), 204 nM. Also, the “plasma protein binding affinity relative to warfarin” value in [8] was “three- to four-fold lower affinity”. For the same compound, in data set [9], the Michaelis constant (Km) was determined as 399 ± 130 µM. Besides, in [9], the Vmax was found to be 3.1 ± 0.4 nmol/mg protein/min.
Turning to `CC(=O)C(O)C(c1ccccc1)c1c(O)c2ccccc2oc1=O` (stereo not drawn) [10-OH-WAR, 10-hydroxywarfarin], the half-inhibitory concentration (IC50) in [1] turned out to be 2 µM; in [4], 1.6 µM. Further, in data set [10], the “mean unbound concentration in human plasma (estimated)” value is 5.8 ng/mL. In addition, the inhibitory constant (Ki) in data set [2] came out at 2.2 µM; in data set [3] it was 0.94 µM. Also, the Mechanism of inhibition entry in data set [2] and in data set [3] was “Competitive” in each case. Also, the “Ki, fold lower than the microsomal Km for S-warfarin” value in data set [2] (human liver microsomes) was 2.4 fold. The “Ki, fold lower than the Km for S-warfarin” value in data set [3] (recombinant CYP2C9) was “approximately 2.5 fold”. Besides, the “detection in urine specimens” value in data set [6] (any of the three specimens) is reported as “not detected”.
Consider `CC(=O)C[C@@H](c1ccccc1)c1c(O)c2ccc(O)cc2oc1=O` [(S)-7-OH-WAR, (S) 7-hydroxywarfarin], for which the “share of (S)-WAR P450 metabolites measured” value in [6] was 61-71%.
Still for that read-out and setting: in the case of `CC(=O)C[C@@H](c1ccccc1)c1c(O)c2cccc(O)c2oc1=O` [(S)-8-OH-WAR, (S) 8-hydroxywarfarin] it was 4-20%.
As to `CC(=O)C[C@@H](c1ccccc1)c1c(O)c2ccccc2oc1=O` [S-warfarin, (S) warfarin, reference compound], the “mean unbound concentration in human plasma (estimated)” value in data set [10] is on record as 2.7 ng/mL. For the same compound, the Michaelis constant (Km) in [11] (4′-hydroxywarfarin formation) turned out to be 27 µM; in [11] (10-hydroxywarfarin formation), 26 µM; in data set [12] (4′-hydroxywarfarin formation), 2280 µM; in data set [12] (10-hydroxywarfarin formation), 81 µM. For the same compound, the Vmax in data set [11] (4′-hydroxywarfarin formation) was 64 pmol product/min/nmol P450; in data set [11] (setting [13]) it was 76 pmol product/min/nmol P450; in data set [12] (4′-hydroxywarfarin formation), 321 pmol product/min/nmol P450; in [12] (setting [13]) it was 22 pmol product/min/nmol P450.
